{"source": "ChEMBL document CHEMBL2057161", "about": "“Synthesis and evaluation of nitric oxide-releasing DDB derivatives as potential Pgp-mediated MDR reversal agents in MCF-7/Adr cells” (Bioorg Med Chem Lett, 2012)", "key": {"HepG2": {"test_system": "HepG2", "assay": "Antiproliferative activity against human HepG2 cells after 48 hrs by MTT assay", "assay_type": "functional, cell-based", "conditions": "HepG2, 48 h"}, "[1]": {"assay": "Downregulation of doxorubicin-induced P-glycoprotein expression in human MCF7/ADR cells at 25 uM after 48 hrs by Western blot analysis", "assay_type": "functional, cell-based", "conditions": "NCI/ADR-RES"}, "MCF7": {"test_system": "MCF7", "assay": "Antiproliferative activity against human MCF7 up to 25 uM cells after 48 hrs by MTT assay", "assay_type": "functional, cell-based"}, "[2]": {"target": "T1, ATP-dependent translocase ABCB1 (Homo sapiens, UniProt P08183)", "T1 sequence (P08183 whole entry)": "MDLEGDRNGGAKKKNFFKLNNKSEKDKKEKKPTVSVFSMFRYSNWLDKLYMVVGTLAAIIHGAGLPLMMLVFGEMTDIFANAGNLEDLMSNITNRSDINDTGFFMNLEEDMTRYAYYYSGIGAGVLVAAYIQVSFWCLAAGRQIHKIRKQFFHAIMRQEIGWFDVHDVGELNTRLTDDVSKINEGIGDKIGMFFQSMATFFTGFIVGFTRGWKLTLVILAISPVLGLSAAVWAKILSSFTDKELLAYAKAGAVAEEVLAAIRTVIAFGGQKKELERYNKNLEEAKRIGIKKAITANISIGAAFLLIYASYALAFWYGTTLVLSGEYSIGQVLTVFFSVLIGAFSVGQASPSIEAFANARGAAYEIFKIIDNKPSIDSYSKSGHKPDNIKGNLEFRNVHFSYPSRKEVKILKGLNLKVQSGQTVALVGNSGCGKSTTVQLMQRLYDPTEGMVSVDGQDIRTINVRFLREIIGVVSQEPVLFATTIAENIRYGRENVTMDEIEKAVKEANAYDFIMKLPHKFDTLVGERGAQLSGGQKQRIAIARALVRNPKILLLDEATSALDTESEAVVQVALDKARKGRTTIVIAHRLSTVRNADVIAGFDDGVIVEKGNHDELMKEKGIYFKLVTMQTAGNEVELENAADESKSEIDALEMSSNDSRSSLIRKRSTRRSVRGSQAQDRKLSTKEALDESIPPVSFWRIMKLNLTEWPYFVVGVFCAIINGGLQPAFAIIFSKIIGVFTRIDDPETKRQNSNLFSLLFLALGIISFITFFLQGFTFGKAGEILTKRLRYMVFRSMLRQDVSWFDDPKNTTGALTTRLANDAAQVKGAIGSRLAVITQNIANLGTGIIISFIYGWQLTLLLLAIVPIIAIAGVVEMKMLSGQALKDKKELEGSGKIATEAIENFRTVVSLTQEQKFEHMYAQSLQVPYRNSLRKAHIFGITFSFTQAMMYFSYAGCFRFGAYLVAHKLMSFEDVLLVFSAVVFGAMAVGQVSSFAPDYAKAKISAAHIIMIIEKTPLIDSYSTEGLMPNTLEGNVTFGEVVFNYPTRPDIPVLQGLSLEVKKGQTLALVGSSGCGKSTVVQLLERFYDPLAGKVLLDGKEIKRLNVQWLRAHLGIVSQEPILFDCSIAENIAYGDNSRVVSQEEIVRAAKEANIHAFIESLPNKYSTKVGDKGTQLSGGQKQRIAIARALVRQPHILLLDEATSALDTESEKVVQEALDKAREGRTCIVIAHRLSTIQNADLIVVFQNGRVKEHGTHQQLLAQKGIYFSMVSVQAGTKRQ", "assay": "Inhibition of P-glycoprotein in human MCF7/ADR cells assessed as potentiation of doxorubicin antiproliferative activity after 48 hrs by MTT assay", "assay_type": "cell-based", "conditions": "nci/adr-res"}, "[3]": {"target": "T1, ATP-dependent translocase ABCB1", "assay": "Inhibition of P-glycoprotein overexpressed in human Caco2 cells assessed as decrease in digoxin efflux at 25 uM incubated for 90 mins prior to digoxin treatment measured after 90 mins by LC/MS/MS analysis", "assay_type": "cell-based", "conditions": "caco-2, 1.5 h"}, "NCI/ADR-RES [4]": {"test_system": "NCI/ADR-RES", "assay": "Induction of nitric oxide release in human MCF7/ADR cells at 25 uM by Griess method", "assay_type": "functional, cell-based"}, "[5]": {"target": "T1, ATP-dependent translocase ABCB1", "assay": "Inhibition of P-glycoprotein overexpressed in human MCF7/ADR cells assessed as increase in doxorubicin accumulation at 25 uM incubated for 1.5 hrs prior to doxorubicin treatment measured after 1.5 hrs by HPLC analysis in presence of hemoglobin", "assay_type": "cell-based", "conditions": "nci/adr-res"}, "[6]": {"target": "T1, ATP-dependent translocase ABCB1", "assay": "Inhibition of P-glycoprotein overexpressed in human Caco2 cells assessed as increase in digoxin accumulation at 5 to 25 uM incubated for 1.5 hrs prior to digoxin treatment measured after 1.5 hrs by LC/MS/MS analysis in presence of hemoglobin", "assay_type": "cell-based", "conditions": "caco-2, 1.5 h"}, "NCI/ADR-RES [7]": {"test_system": "NCI/ADR-RES", "assay": "Antiproliferative activity against human MCF7/ADR up to 25 uM cells after 48 hrs by MTT assay", "assay_type": "functional, cell-based"}, "[8]": {"target": "T1, ATP-dependent translocase ABCB1", "assay": "Inhibition of P-glycoprotein in human MCF7 assessed as increase in doxorubicin accumulation at 25 uM incubated for 1.5 hrs prior to doxorubicin treatment measured after 1.5 hrs by HPLC analysis in presence of hemoglobin", "conditions": "mcf7, 1.5 h"}, "[9]": {"target": "T1, ATP-dependent translocase ABCB1", "assay": "Inhibition of P-glycoprotein in human MCF7 assessed as increase in doxorubicin accumulation at 25 uM incubated for 1.5 hrs prior to doxorubicin treatment measured after 1.5 hrs by HPLC analysis", "conditions": "mcf7, 1.5 h"}, "[10]": {"target": "T1, ATP-dependent translocase ABCB1", "assay": "Inhibition of P-glycoprotein overexpressed in human MCF7/ADR cells assessed as increase in doxorubicin accumulation at 25 uM incubated for 1.5 hrs prior to doxorubicin treatment measured after 1.5 hrs by HPLC analysis", "assay_type": "cell-based", "conditions": "nci/adr-res"}, "[11]": {"target": "T1, ATP-dependent translocase ABCB1", "assay": "Inhibition of P-glycoprotein overexpressed in human Caco2 cells assessed as increase in digoxin permeability at 25 uM incubated for 90 mins prior to digoxin treatment measured after 90 mins by LC/MS/MS analysis", "assay_type": "cell-based", "conditions": "caco-2, 1.5 h"}}, "note": "Calls of active or inactive are those of the source. The rule behind the calls is not given here."}
{"compound": "COC(=O)c1cc(OC)c2c(c1-c1c(C(=O)NCCC(=O)OC(C)CCOc3no[n+]([O-])c3S(=O)(=O)c3ccccc3)cc(OC)c3c1OCO3)OCO2", "note": "(configuration not stated)", "values": [{"measurement": "IC50", "setting": "HepG2", "result": 1150, "unit": "nM"}]}
{"compound": "COC(=O)c1cc(OC)c2c(c1-c1c(C(=O)NCCC(=O)OCCOCCOc3no[n+]([O-])c3S(=O)(=O)c3ccccc3)cc(OC)c3c1OCO3)OCO2", "values": [{"measurement": "IC50", "setting": "HepG2", "result": 1880, "unit": "nM"}]}
{"compound": "COC(=O)c1cc(OC)c2c(c1-c1c(C(=O)N[C@@H](C)C(=O)OCCOCCOc3no[n+]([O-])c3S(=O)(=O)c3ccccc3)cc(OC)c3c1OCO3)OCO2", "values": [{"measurement": "Activity", "setting": "[1]", "result": "Active"}, {"measurement": "Activity", "setting": "MCF7", "result": "inactive"}, {"measurement": "inhibition (INH)", "setting": "[2]", "result": "Dose-dependent effect"}, {"measurement": "inhibition (INH)", "setting": "[3]", "result": "Active"}, {"measurement": "Activity", "setting": "NCI/ADR-RES [4]", "result": "Active"}, {"measurement": "inhibition (INH)", "setting": "[5]", "result": "Not Active"}, {"measurement": "inhibition (INH)", "setting": "[6]", "result": "Not Active"}, {"measurement": "Activity", "setting": "NCI/ADR-RES [7]", "result": "inactive"}, {"measurement": "inhibition (INH)", "setting": "[8]", "result": "Not Active"}, {"measurement": "inhibition (INH)", "setting": "[9]", "result": "Not Active"}, {"measurement": "inhibition (INH)", "setting": "[10]", "result": "Active"}, {"measurement": "inhibition (INH)", "setting": "[11]", "result": "Active"}, {"measurement": "IC50", "setting": "HepG2", "result": 1490, "unit": "nM"}]}
{"compound": "COC(=O)c1cc(OC)c2c(c1-c1c(C(=O)NCCC(=O)OC(C)(C)CCOc3no[n+]([O-])c3S(=O)(=O)c3ccccc3)cc(OC)c3c1OCO3)OCO2", "values": [{"measurement": "IC50", "setting": "HepG2", "result": 1360, "unit": "nM"}]}
{"compound": "COC(=O)c1cc(OC)c2c(c1-c1c(C(=O)N[C@@H](C)C(=O)OCCCOc3no[n+]([O-])c3S(=O)(=O)c3ccccc3)cc(OC)c3c1OCO3)OCO2", "values": [{"measurement": "IC50", "setting": "HepG2", "result": 1250, "unit": "nM"}]}
{"compound": "C[C@H](N)C(=O)OCCOCCOc1no[n+]([O-])c1S(=O)(=O)c1ccccc1", "values": [{"measurement": "inhibition (INH)", "setting": "[10]", "result": "Active"}]}
{"compound": "C[C@H](N)C(=O)OCCCCOc1no[n+]([O-])c1S(=O)(=O)c1ccccc1", "values": [{"measurement": "inhibition (INH)", "setting": "[10]", "result": "Active"}]}
{"compound": "COC(=O)c1cc(OC)c2c(c1-c1c(C(=O)NCCC(=O)OCCCCOc3no[n+]([O-])c3S(=O)(=O)c3ccccc3)cc(OC)c3c1OCO3)OCO2", "values": [{"measurement": "IC50", "setting": "HepG2", "result": 1360, "unit": "nM"}]}
{"compound": "COC(=O)c1cc(OC)c2c(c1-c1c(C(=O)NCCC(=O)OCCCOc3no[n+]([O-])c3S(=O)(=O)c3ccccc3)cc(OC)c3c1OCO3)OCO2", "values": [{"measurement": "IC50", "setting": "HepG2", "result": 1140, "unit": "nM"}]}
{"compound": "COC(=O)c1cc(OC)c2c(c1-c1c(C(=O)NCCC(=O)OCCOc3no[n+]([O-])c3S(=O)(=O)c3ccccc3)cc(OC)c3c1OCO3)OCO2", "values": [{"measurement": "IC50", "setting": "HepG2", "result": 1350, "unit": "nM"}]}
{"compound": "COC(=O)c1cc(OC)c2c(c1-c1c(C(=O)NCCC(=O)NCCOc3no[n+]([O-])c3S(=O)(=O)c3ccccc3)cc(OC)c3c1OCO3)OCO2", "values": [{"measurement": "IC50", "setting": "HepG2", "result": 1250, "unit": "nM"}]}
{"compound": "O=c1[nH]cc(F)c(=O)[nH]1", "note": "[FLUOROURACIL]", "values": [{"measurement": "IC50", "setting": "HepG2", "result": 15900, "unit": "nM"}]}
{"compound": "COC(=O)c1cc(OC)c2c(c1-c1c(C(=O)N[C@@H](C)C(=O)OCCCCOc3no[n+]([O-])c3S(=O)(=O)c3ccccc3)cc(OC)c3c1OCO3)OCO2", "values": [{"measurement": "Activity", "setting": "[1]", "result": "Active"}, {"measurement": "Activity", "setting": "MCF7", "result": "inactive"}, {"measurement": "inhibition (INH)", "setting": "[2]", "result": "Dose-dependent effect"}, {"measurement": "inhibition (INH)", "setting": "[3]", "result": "Active"}, {"measurement": "Activity", "setting": "NCI/ADR-RES [4]", "result": "Active"}, {"measurement": "inhibition (INH)", "setting": "[5]", "result": "Not Active"}, {"measurement": "inhibition (INH)", "setting": "[6]", "result": "Not Active"}, {"measurement": "Activity", "setting": "NCI/ADR-RES [7]", "result": "inactive"}, {"measurement": "inhibition (INH)", "setting": "[8]", "result": "Not Active"}, {"measurement": "inhibition (INH)", "setting": "[9]", "result": "Not Active"}, {"measurement": "inhibition (INH)", "setting": "[10]", "result": "Active"}, {"measurement": "inhibition (INH)", "setting": "[11]", "result": "Active"}, {"measurement": "IC50", "setting": "HepG2", "result": 1210, "unit": "nM"}]}
